According to publication PMC12164952 (Science Advances, 2025):

T1: ABCB19 (Arabidopsis thaliana, UniProt Q9LJX0)
T1 sequence (Q9LJX0 1-1252): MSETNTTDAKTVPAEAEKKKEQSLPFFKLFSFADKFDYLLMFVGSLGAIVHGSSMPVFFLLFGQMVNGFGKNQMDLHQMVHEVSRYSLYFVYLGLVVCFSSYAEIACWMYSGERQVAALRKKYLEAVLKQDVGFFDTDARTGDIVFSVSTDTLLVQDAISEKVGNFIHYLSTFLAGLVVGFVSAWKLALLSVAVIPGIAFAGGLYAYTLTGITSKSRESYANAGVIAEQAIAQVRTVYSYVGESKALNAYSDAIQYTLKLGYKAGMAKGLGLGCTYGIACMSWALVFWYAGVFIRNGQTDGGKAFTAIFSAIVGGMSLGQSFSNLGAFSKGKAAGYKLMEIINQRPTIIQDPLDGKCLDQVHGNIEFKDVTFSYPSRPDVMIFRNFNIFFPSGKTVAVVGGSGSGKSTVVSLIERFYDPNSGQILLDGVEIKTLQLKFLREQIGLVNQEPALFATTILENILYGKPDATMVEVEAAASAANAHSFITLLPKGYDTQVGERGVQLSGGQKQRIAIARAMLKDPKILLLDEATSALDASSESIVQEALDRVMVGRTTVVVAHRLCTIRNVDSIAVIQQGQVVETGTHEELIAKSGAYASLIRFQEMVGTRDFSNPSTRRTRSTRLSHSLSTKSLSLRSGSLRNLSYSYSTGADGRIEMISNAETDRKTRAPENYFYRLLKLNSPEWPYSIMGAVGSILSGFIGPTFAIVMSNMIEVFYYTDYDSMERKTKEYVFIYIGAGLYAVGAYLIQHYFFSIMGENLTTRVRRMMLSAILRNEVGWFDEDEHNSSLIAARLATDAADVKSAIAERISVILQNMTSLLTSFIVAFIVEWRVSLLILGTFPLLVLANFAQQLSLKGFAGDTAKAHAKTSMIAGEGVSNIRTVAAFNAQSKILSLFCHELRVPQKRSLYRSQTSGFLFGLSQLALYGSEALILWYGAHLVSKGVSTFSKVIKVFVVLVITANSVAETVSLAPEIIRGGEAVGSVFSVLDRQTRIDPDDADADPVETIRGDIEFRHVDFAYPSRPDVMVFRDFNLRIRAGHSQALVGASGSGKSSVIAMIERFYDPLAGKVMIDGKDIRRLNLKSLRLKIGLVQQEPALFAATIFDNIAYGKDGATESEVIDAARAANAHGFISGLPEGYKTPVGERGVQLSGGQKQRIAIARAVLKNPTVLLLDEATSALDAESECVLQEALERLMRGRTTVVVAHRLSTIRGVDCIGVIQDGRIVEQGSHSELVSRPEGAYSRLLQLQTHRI


Experiments:
ABCB19 = target: T1, ABCB19; test: cryo-EM structure at […] Å in nanodiscs; type: biochemical
purified protein = substrate: Nc1ncnc2c1ncn2[C@@H]1O[C@H](COP(=O)(O)OP(=O)(O)OP(=O)(O)O)[C@@H](O)[C@H]1O; test: purified protein; type: biochemical, Arabidopsis thaliana; details: Mg2+ ATP-binding sites of the NBDs

IC50 (ABCB19)	Molecule	Km (purified protein)
890 µM	CCN(CC)c1ccc(C(=O)c2ccccc2C(=O)O)c(O)c1 [BUM, 2-[4-(Diethylamino)-2-hydroxybenzoyl]benzoic acid]	–
–	ABCB19 (Arabidopsis thaliana) (protein) MSETNTTDAKTVPAEAEKKKEQSLPFFKLFSFADKFDYLLMFVGSLGAIVHGSSMPVFFLLFGQMVNGFGKNQMDLHQMVHEVSRYSLYFVYLGLVVCFSSYAEIACWMYSGERQVAALRKKYLEAVLKQDVGFFDTDARTGDIVFSVSTDTLLVQDAISEKVGNFIHYLSTFLAGLVVGFVSAWKLALLSVAVIPGIAFAGGLYAYTLTGITSKSRESYANAGVIAEQAIAQVRTVYSYVGESKALNAYSDAIQYTLKLGYKAGMAKGLGLGCTYGIACMSWALVFWYAGVFIRNGQTDGGKAFTAIFSAIVGGMSLGQSFSNLGAFSKGKAAGYKLMEIINQRPTIIQDPLDGKCLDQVHGNIEFKDVTFSYPSRPDVMIFRNFNIFFPSGKTVAVVGGSGSGKSTVVSLIERFYDPNSGQILLDGVEIKTLQLKFLREQIGLVNQEPALFATTILENILYGKPDATMVEVEAAASAANAHSFITLLPKGYDTQVGERGVQLSGGQKQRIAIARAMLKDPKILLLDEATSALDASSESIVQEALDRVMVGRTTVVVAHRLCTIRNVDSIAVIQQGQVVETGTHEELIAKSGAYASLIRFQEMVGTRDFSNPSTRRTRSTRLSHSLSTKSLSLRSGSLRNLSYSYSTGADGRIEMISNAETDRKTRAPENYFYRLLKLNSPEWPYSIMGAVGSILSGFIGPTFAIVMSNMIEVFYYTDYDSMERKTKEYVFIYIGAGLYAVGAYLIQHYFFSIMGENLTTRVRRMMLSAILRNEVGWFDEDEHNSSLIAARLATDAADVKSAIAERISVILQNMTSLLTSFIVAFIVEWRVSLLILGTFPLLVLANFAQQLSLKGFAGDTAKAHAKTSMIAGEGVSNIRTVAAFNAQSKILSLFCHELRVPQKRSLYRSQTSGFLFGLSQLALYGSEALILWYGAHLVSKGVSTFSKVIKVFVVLVITANSVAETVSLAPEIIRGGEAVGSVFSVLDRQTRIDPDDADADPVETIRGDIEFRHVDFAYPSRPDVMVFRDFNLRIRAGHSQALVGASGSGKSSVIAMIERFYDPLAGKVMIDGKDIRRLNLKSLRLKIGLVQQEPALFAATIFDNIAYGKDGATESEVIDAARAANAHGFISGLPEGYKTPVGERGVQLSGGQKQRIAIARAVLKNPTVLLLDEATSALDAESECVLQEALERLMRGRTTVVVAHRLSTIRGVDCIGVIQDGRIVEQGSHSELVSRPEGAYSRLLQLQTHRI	1080 µM
